Source: ChEMBL document CHEMBL5042510, “Structure-Guided Discovery of Aminoquinazolines as Brain-Penetrant and Selective LRRK2 Inhibitors” (J Med Chem, 2022)

Key:
[1] = Toxicity in rat assessed as elevation of inflammatory response related gene expression at 10 to 75 mg/kg, po bid administered for 4 days; assay type: organism-based; details: in vivo, 96 h, dose 10-75 mg/kg, time 4 day
[2] = Toxicity in rat assessed as body weight loss at 400 mg/kg, po qd administered for 4 days; assay type: organism-based; details: in vivo, 96 h, time 4 day
UGT1A6 = experiment: Toxicity in rat assessed as fold increase in UGT1A6 transcriptional activity in liver at 75 mg/kg, po bid administered for 4 days relative to control; assay type: organism-based; details: time 4 day, read-out: FC
[3] = Total plasma clearance in Rhesus monkey at 3 mg/kg, iv by LC-MS/MS analysis; assay type: ADME, organism-based, Macaca mulatta
[4] = Toxicity in rat assessed as clinical signs of toxicity at 40 to 400 mg/kg, po qd administered for 4 days; assay type: organism-based; details: in vivo, 96 h, dose 40-400 mg/kg, time 4 day
[5] = AUC in rat at 10 to 400 mg/kg, po qd for 4 days by LC/MS/MS analysis; assay type: ADME, organism-based; design: time 4 day; details: in vivo, 96 h, dose 10-400 mg/kg
Salmonella typhimurium = experiment: Mutagenicity in Salmonella typhimurium TA1535 at 30 to 5000 ug incubated for 48 hrs in presence of liver S9 fraction by AMES test; assay type: toxicity, organism-based, Salmonella enterica subsp. enterica serovar Typhimurium; details: s9, 48 h, dose 30-5000 µg
[6] = Toxicity in rat assessed as elevation of AhR gene expression at 10 to 75 mg/kg, po bid administered for 4 days; assay type: organism-based; details: in vivo, 96 h, dose 10-75 mg/kg, time 4 day
[7] = Toxicity in rat assessed as fold increase in serum ALP levels at 150 mg/kg, po qd administered for 4 days; assay type: organism-based; details: in vivo, 96 h, time 4 day
[8] = Unbound fraction in CD rat plasma at 1 to 100 mg/kg, po measured after 120 mins by LC/MS/MS analysis; assay type: ADME, organism-based; details: in vivo, 2 h, dose 1-100 mg/kg
[9] = tested on: Leucine-rich repeat serine/threonine-protein kinase 2 (Homo sapiens), Q5S007 [G2019S]; experiment: Inhibition of LRRK2 […] mutant expressed in human SH-SY5Y cells assessed as unbound concentration required for inhibition of phosphorylation of LRRK2 at Ser935 residue incubated for 90 mins by MSD assay; assay type: cell-based
[10] = Toxicity in rat assessed as fold increase in serum ALT levels at 150 mg/kg, po qd administered for 4 days; assay type: organism-based; details: in vivo, 96 h, time 4 day
[11] = Unbound brain-to-plasma concentration ratio in CD rat 1 to 100 mg/kg, po measured after 120 mins by LC/MS/MS analysis; assay type: ADME, organism-based; details: brain and plasma (unbound), dose 1-100 mg/kg, read-out: K(p,uu,brain)
[12] = molecular target: Leucine-rich repeat serine/threonine-protein kinase 2 (Homo sapiens, UniProt Q5S007, G2019S); experiment: Inhibition of recombinant N-terminal GST-fused LRRK2 […] mutant (970 to 2527 residues) (unknown origin) preincubated with enzyme for 15 mins followed by fluorescein-labeled LRRKtide peptide substrate and ATP addition for 90 mins by TR-FRET assay
[13] = MRT in Beagle dog at 1 mg/kg, iv by LC-MS/MS analysis; assay type: ADME, organism-based, Canis lupus familiaris; details: in vivo
[14] = Oral bioavailability in Wistar Han rat at 5 mg/kg by LC-MS/MS analysis; assay type: ADME, organism-based; details: in vivo
[15] = Total plasma clearance in Beagle dog at 1 mg/kg, iv by LC-MS/MS analysis; assay type: ADME, organism-based, Canis lupus familiaris

Chain of Leucine-rich repeat serine/threonine-protein kinase 2 (Q5S007 whole entry G2019S, the tested form may be a part): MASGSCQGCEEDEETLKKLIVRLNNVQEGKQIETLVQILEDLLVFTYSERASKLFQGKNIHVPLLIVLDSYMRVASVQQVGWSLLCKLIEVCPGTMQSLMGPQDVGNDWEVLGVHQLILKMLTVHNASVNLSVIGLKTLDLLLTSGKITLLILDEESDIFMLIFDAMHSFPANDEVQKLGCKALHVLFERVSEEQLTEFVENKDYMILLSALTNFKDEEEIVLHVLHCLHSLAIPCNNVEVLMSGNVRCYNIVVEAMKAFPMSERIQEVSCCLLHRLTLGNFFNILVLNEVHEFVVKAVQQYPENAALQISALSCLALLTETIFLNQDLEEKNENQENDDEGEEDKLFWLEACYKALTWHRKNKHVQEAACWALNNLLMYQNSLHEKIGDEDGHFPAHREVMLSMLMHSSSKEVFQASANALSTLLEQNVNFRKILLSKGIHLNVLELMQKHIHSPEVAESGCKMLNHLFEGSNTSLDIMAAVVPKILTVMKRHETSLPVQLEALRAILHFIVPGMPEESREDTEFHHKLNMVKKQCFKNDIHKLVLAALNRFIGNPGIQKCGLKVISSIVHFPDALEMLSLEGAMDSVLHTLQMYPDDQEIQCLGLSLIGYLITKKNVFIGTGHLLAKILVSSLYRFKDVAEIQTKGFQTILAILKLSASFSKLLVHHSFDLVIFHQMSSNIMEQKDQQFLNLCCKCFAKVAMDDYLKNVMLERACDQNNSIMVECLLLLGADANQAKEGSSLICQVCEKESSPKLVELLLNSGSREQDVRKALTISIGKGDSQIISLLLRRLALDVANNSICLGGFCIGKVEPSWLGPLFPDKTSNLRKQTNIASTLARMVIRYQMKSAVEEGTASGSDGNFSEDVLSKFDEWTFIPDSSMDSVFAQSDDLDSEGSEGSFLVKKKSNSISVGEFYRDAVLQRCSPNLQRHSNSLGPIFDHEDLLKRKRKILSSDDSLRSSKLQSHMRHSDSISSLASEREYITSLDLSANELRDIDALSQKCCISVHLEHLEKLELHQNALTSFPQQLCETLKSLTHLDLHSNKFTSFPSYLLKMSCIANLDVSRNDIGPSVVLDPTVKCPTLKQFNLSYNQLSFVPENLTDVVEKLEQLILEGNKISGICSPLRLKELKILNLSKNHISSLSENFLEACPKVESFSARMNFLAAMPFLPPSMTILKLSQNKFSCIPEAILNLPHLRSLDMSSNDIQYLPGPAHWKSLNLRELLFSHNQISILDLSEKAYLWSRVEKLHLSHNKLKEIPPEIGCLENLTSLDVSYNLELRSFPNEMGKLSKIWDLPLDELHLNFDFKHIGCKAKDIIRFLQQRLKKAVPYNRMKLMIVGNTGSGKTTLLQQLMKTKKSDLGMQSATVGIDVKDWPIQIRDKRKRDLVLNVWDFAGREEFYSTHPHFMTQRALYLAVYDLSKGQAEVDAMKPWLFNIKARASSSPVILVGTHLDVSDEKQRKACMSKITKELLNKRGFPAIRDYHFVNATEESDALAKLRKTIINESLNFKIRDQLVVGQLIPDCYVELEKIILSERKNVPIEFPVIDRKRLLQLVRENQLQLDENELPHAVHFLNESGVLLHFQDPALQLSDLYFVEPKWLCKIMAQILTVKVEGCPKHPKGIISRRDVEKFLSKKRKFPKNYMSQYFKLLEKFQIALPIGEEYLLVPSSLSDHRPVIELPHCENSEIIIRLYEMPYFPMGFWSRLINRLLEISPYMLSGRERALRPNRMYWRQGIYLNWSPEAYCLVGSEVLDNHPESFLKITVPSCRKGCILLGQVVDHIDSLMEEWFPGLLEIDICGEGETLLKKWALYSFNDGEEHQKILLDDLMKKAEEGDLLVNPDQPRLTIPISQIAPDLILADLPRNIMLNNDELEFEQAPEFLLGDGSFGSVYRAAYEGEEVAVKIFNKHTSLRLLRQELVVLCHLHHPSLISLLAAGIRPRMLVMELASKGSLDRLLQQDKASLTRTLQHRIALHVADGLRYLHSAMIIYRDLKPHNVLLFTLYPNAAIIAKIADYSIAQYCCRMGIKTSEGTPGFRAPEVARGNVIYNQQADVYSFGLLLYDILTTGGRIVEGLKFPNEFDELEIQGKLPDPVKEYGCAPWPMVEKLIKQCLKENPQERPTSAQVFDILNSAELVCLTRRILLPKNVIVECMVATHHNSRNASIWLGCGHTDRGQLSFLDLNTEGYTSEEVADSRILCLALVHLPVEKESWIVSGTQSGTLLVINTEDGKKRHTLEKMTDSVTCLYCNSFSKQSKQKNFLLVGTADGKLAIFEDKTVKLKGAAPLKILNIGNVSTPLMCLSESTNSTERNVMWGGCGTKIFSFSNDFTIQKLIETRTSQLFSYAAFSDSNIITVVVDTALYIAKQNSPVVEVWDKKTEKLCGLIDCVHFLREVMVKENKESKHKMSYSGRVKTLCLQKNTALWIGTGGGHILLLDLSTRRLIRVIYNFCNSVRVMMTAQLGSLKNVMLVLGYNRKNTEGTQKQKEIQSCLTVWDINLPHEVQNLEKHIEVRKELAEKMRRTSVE
Chain of Leucine-rich repeat serine/threonine-protein kinase 2 (Homo sapiens), Q5S007 [G2019S] (Q5S007 whole entry G2019S): as the sequence (Q5S007 whole entry G2019S, the tested form may be a part) above

clearance [3]: 21 mL/min/kg | AUC [5]: 99 µM·h | Cp(f) [8]: 10.14 nM | fIC50 [9]: 0.57 nM | Kp uu at 2 h [11]: 0.36 | IC50 [12]: < 0.6 nM | MRT [13]: 24 h | bioavailability [14]: 83% | clearance [15]: 9 mL/min/kg
SMILES: O[C@H]1COC[C@H]1N1CC[C@@H](c2cc3nc(Nc4cnn([C@@H]5CC5(F)F)c4Cl)ncc3cc2Cl)[C@H](F)C1
Activity [1]: Non-Toxic | Activity [2]: Toxic | fold induction at 96 h (UGT1A6): 2.5 | Activity [4]: Non-Toxic | Activity (Salmonella typhimurium): Non-Toxic | Activity [6]: Non-Toxic | fold change (FC) [7]: 2 | fold change (FC) [10]: 2
